Measurements: US8227207B2, “Bioactive peptides derived from the proteins of egg white by means of enzymatic hydrolysis” (Consejo Superior de Investigaciones Cientifcas, priority 2004, dated 2012)
Residues, ends and D or L forms follow the SMILES beside them.

How the values were obtained:
[1] = target: T1, angiotensin converting enzyme (ACE, EC 3.4.15.1) (Oryctolagus cuniculus, UniProt P12822); assay type: biochemical
T1 sequence (P12822 34-1310): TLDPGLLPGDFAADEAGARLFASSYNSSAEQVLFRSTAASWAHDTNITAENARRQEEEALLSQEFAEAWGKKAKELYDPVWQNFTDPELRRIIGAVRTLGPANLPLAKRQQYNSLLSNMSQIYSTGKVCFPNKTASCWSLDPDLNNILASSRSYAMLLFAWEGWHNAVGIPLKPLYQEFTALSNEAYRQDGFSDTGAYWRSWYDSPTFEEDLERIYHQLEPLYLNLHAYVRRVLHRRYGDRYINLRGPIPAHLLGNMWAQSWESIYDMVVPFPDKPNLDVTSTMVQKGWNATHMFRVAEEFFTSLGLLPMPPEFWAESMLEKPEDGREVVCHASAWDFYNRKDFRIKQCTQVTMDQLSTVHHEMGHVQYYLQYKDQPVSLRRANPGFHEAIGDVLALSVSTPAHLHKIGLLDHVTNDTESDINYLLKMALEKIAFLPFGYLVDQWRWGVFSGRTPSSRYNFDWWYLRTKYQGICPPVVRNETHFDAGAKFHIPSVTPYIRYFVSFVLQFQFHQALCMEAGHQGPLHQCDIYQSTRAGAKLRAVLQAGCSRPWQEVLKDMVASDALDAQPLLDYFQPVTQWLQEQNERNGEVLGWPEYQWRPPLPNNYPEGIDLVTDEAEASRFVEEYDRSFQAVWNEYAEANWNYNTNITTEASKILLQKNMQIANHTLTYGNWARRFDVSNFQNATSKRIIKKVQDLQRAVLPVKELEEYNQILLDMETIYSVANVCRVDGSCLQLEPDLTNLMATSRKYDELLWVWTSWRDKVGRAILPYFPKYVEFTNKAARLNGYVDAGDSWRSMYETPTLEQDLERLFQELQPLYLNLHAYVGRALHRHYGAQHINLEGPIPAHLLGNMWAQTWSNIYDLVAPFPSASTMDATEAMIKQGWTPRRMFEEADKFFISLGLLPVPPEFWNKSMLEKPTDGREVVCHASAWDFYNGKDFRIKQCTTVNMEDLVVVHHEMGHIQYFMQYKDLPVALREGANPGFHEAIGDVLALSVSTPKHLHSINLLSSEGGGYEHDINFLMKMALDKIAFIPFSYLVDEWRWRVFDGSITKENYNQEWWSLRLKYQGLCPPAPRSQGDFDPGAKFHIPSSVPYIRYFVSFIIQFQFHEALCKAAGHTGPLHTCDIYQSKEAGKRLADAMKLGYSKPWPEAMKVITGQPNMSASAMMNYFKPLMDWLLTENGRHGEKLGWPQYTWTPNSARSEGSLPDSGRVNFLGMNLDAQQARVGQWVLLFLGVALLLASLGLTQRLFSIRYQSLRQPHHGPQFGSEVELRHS
Procedure: (§1) The inhibitory activity of the angiotensin converting enzyme (ACE) is measured in vitro according to the method of D. W. Cushman and H. S. Cheung (Spectrophotometric assay and properties of the angiotensin-converting enzyme of rabbit lung. Biochemical Pharmacology, 1971, 20: 1637-1648), later on modified by Y. K. Kim, S. Yoon, D. Y. Yu, B. Lönnerdal and B. H. Cheung (Novel angiotensin-I-converting enzyme inhibitory peptides derived from recombinant human αs1-casein expressed in Escherichia coli, Journal of Dairy Research 1999, 66, 431-439).
(§2) The substrate hippuryl histidyl leucine (HHL, Sigma Chemicals Co., St. Louis, Mo., USA) is dissolved in a 0.1 M borate buffer with 0.3 M NaCl pH 8.3 to obtain a final concentration of 5 mM. To 100 μl of substrate are added 40 μl of each of the samples whose ACEI activity it is wished to determine. The ACE enzyme (EC 3.4.15.1, Sigma) is added, dissolved in 50% glycerol and diluted 1/10 in bidistilled water at the moment of conducting the assay. The reaction is carried out at 37° C. for 30 minutes in a water-bath. The enzyme is deactivated by lowering the pH with 150 μl of 1 N HCl. The hippuric acid formed is extracted with 1000 μl of ethyl acetate. Following vortex stirring for 20 seconds, it is centrifuged at 4000 rpm for 10 minutes at room temperature. 750 μl of the organic phase are taken and evaporated by heating at 95° C. for 10 minutes. The hippuric acid residue is redissolved in 800 μl of bidistilled water and, following stirring for 20 seconds, the absorbency at 228 nm is measured in a Dur-70 spectrophotometer from Beckman Instruments, Inc., Fullerton, USA.
(§3) In order to calculate the percentage of ACEI activity, the following formula is used
(§4) The blank is used for correcting the background absorbency. This contains substrate, enzyme and 20 μl of bidistilled water in place of the sample, and the reaction is halted at zero time. The control implies a hundred percent of the enzymatic action on the substrate in the absence of inhibitors and contains 20 μl of water in place of the sample and is incubated the same time as the sample.
(§5) The results are presented as the IC50 (μM or μg/ml) or concentration at which 50% of the enzyme's activity is inhibited. The concentration of protein is determined by means of the bicinchonomic acid (BCA) assay (Pierce, Rockford, Ill., USA) using bovine seroalbumin as reference.

ACE = ACE (Homo sapiens, UniProt P12821); details: according to the cited authors; listed as ovokinin; cited from earlier work
ACE, sequence (P12821 30-1306, species assumed): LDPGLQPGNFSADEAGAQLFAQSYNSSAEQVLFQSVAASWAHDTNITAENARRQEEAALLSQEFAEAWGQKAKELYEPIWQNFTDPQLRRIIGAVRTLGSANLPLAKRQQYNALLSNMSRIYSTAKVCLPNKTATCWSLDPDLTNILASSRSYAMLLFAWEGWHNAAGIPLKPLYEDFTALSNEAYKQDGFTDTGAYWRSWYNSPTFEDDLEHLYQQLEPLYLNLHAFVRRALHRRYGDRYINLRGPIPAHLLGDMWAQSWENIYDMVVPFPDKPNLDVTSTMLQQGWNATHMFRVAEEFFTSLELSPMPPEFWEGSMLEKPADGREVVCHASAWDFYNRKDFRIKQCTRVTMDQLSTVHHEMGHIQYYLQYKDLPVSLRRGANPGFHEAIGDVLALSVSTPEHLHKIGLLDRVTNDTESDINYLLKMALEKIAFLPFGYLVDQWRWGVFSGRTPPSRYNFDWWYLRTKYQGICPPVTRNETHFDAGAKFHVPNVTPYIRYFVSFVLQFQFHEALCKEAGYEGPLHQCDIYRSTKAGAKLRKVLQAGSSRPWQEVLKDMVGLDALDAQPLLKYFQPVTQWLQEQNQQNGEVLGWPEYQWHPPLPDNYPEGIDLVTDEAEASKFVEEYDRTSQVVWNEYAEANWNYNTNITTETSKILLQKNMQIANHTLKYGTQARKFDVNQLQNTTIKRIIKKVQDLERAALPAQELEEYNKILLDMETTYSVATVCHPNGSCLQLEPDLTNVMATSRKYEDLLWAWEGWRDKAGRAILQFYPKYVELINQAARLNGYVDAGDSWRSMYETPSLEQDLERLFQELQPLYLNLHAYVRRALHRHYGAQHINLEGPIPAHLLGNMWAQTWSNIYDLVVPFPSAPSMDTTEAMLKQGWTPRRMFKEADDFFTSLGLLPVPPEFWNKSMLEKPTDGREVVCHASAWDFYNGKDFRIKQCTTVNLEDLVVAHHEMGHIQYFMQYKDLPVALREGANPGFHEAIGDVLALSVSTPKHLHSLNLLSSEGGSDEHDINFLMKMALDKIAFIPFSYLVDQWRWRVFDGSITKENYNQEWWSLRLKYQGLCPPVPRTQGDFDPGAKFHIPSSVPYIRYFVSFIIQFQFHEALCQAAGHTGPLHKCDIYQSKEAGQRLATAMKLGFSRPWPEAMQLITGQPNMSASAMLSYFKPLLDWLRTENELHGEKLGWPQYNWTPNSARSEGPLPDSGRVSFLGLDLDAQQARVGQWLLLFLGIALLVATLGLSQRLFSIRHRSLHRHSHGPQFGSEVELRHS

[2] = system: canine mesenteric arteries; details: listed as ovokinin; cited from earlier work
[3] = system: spontaneously hypertensive rats (SHR); details: ovokinin oral 100 mg/kg, ovokinin (2-7) 10 mg/kg; cited from earlier work
[4] = system: angiotensin converting enzyme (ACE) (EC 3.4.15.1, Sigma); experiment: In vitro inhibitory activity of the angiotensin converting enzyme (ACEI activity); assay type: biochemical; details: result in words
Procedure: Measurement of the Inhibitory Activity of the Angiotensin Converting Enzyme (ACEI Activity)
as §1, §2, §3, §4, §5

[5] = system: spontaneously hypertensive rats (SHR); details: SHR; literature; ovokinin orally 100 mg/kg; cited from earlier work
[6] = system: canine mesenteric arteries; details: literature; cited from earlier work

For `CC(C)C[C@H](NC(=O)[C@H](Cc1ccccc1)NC(=O)[C@@H]1CCCN1C(=O)[C@H](Cc1c[nH]cn1)NC(=O)[C@H](CC(=O)O)NC(=O)[C@H](C)NC(=O)[C@H](CCCNC(=N)N)NC(=O)[C@@H](N)Cc1ccccc1)C(=O)O` [SEQ. ID. N^o 5] (H-FRADHPFL-OH; N-terminus and C-terminus assumed), the “ACEI activity in vitro (in words)” value ([1]; peptides) is given as “potent ACEI activity”, the IC50 ([1]; read-out: ACEI activity IC50, synthetic peptides) is given as 3.2 µM and the “ACEI activity (in words)” value (ACE) is given as “did not possess ACEI activity”. The “vasorelaxing (vasodilatory) activity (in words)” value [2] was “displayed vasorelaxing activity” and the “anti-hypertensive / vasodilatory activity in SHR (in words)” value [3] was “possessed anti-hypertensive activity”.

In the case of `CC(C)C[C@H](NC(=O)[C@H](Cc1ccccc1)NC(=O)[C@@H]1CCCN1C(=O)[C@H](Cc1cnc[nH]1)NC(=O)[C@H](CC(=O)O)NC(=O)[C@H](C)NC(=O)[C@H](CCCNC(=N)N)NC(=O)[C@@H](N)Cc1ccccc1)C(=O)O` [SEQ. ID. No 5] (H-FRADHPFL-OH), the “ACEI activity in vitro” value [4] is given as “potent ACEI activity in vitro”, the anti-hypertensive activity [5] is given as “possessed anti-hypertensive activity when administered orally to spontaneously hypertensive rats (SHR) at doses of 100 mg/kg” and the vasorelaxing activity [6] is given as “displayed vasorelaxing activity in canine mesenteric arteries”.
